Patent publication US20050019267A1, “Macromolecular imaging agents for liver imaging” (priority 2001, published 2005)

How the values were obtained:
[1] = in vivo; cited from earlier work
[2] = test system: LS174T intrahepatic micro-metastases; format: in vivo
[3] = 0.03 mmolGd/kg DAB-Am64-(1B4M-Gd)64 or 0.1 mmolGd/kg dimeglumine-DTPA-Gd, dynamic MRI 0-25 min

SMILES | excreted via the liver [1] | MRI signal intensity for blood vessels (portal and hepatic veins) [2, 3] | MRI signal intensity in the tumors [2, 3] | MRI signal intensity in the liver ([2]; 0.03 mmolGd/kg DAB-Am64-(1B4M-Gd)64 or 0.1 mmolGd/kg dimeglumine-DTPA-Gd, dynamic MRI 0-25 min, comparator worded relative to DAB agent) | liver-to-tumor image intensity ratio ([2]; 0.1 mmolGd/kg dimeglumine-DTPA-Gd versus 0.03 mmolGd/kg DAB-Am64-(1B4M-Gd)64, all time points) | tumors with more than 2 mm diameter detected by MRI (of 18) ([2]; same mice, n=5, 1-day interval, 0.03 mmolGd/kg DAB agent, 0.1 mmolGd/kg dimeglumine-DTPA-Gd)
CCOc1ccc(CC(CN(CCN(CC(=O)[O-])CC(=O)[O-])CC(=O)[O-])N(CC(=O)[O-])CC(=O)[O-])cc1.[Gd+3].[Na+].[Na+] (stereo not shown) [Eovist, [Gd(EOB-DTPA)(H2O)]^2−] | roughly 50% |  |  |  |  | 
CNC[C@H](O)[C@@H](O)[C@H](O)[C@H](O)CO.CNC[C@H](O)[C@@H](O)[C@H](O)[C@H](O)CO.O=C([O-])CN(CCN(CC(=O)[O-])CC(=O)O)CCN(CC(=O)O)C(COCc1ccccc1)C(=O)[O-].[Gd+3] (stereo not shown) [MultiHance, [Gd(BOPTA)(H2O)]^2−] | 2-4% |  |  |  |  | 
CNC[C@H](O)[C@@H](O)[C@H](O)[C@H](O)CO.CNC[C@H](O)[C@@H](O)[C@H](O)[C@H](O)CO.O=C([O-])CN(CCN(CC(=O)[O-])CC(=O)O)CCN(CC(=O)[O-])CC(=O)O.[Gd+3] [dimeglumine-DTPA-Gd] |  | much lower | comparable | much lower | significantly less | 18
